From patent US20090029992A1, “SUBSTITUTED PYRAZOLE COMPOUNDS” (priority 2007, published 2009)

Tests used:
[1] = biological target: T1, N-terminal His6-tagged recombinant human KDR, residues 790-end (Homo sapiens, UniProt P35968); assay: KDR kinase inhibition assay (33P-ATP filter assay); assay type: biochemical
T1 construct: recombinant human KDR, residues 790-end; His6 (N); purchased Upstate USA Inc, 706 Forest Street, Charlottesville, Va
In short: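 His6-tagged human KDR (residues 790-end, 5-10 mU) with 0.33 mg/mL myelin basic protein in 8 mM MOPS pH 7.0, 0.2 mM EDTA, 10 mM magnesium acetate and [γ-33P]ATP; 40 min at room temperature. Stopped with phosphoric acid, filter-bound 33P counted; inhibition relative to no-inhibitor controls.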

HCT116 cells = assay: Whole cell cytotoxicity assay, Sulforhodamine B; assay type: cell-based; details: Homo sapiens, HCT-116, HCT116, 96 hours incubation, SRB; for IC50: read-out: IC50 values in this assay (HCT116 cell growth); for GI50: read-out: GI50 HCT116 cell growth
In short: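 HCT116 cells (500/well) in DMEM/10% FBS/2 mM glutamine were preincubated 24 h, then exposed to compound for 96 h at 37 °C, 5% CO2, in duplicate. Cells were fixed with TCA and stained with sulforhodamine B (A570). GI50, TGI and LC50 were derived relative to a time-zero plate and an untreated control.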

[2] = group with IC50 greater than 100 nM

T1 sequence (P35968 790-1356 limits assumed): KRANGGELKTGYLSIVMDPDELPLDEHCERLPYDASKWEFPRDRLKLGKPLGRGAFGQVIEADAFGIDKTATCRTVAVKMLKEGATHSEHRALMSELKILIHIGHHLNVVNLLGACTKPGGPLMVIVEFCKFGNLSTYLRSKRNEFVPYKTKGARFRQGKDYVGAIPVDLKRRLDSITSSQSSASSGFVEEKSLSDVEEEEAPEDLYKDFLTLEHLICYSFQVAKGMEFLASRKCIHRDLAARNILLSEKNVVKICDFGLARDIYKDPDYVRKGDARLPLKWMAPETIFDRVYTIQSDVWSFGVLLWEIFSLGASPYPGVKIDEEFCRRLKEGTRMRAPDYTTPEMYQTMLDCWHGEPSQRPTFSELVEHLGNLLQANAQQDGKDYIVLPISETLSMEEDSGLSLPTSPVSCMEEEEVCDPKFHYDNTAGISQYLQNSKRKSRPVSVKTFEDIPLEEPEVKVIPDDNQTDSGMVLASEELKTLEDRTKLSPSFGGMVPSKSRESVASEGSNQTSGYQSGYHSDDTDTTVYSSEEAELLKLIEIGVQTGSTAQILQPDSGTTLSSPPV

Row | Compound | IC50 [1, 2] | IC50 ([1]; 40 minutes at room temperature) | IC50 (HCT116 cells) | GI50 (HCT116 cells)
1 | COCCN(C)c1cc(Nc2cc(C)[nH]n2)nc(-c2cccc3ccccc23)n1 [Example 148, N^4-(2-methoxyethyl)-N^4-methyl-N^6-(5-methyl-1H-pyrazol-3-yl)-2-(naphthalen-1-yl)pyrimidine-4,6-diamine] | ≤ 1000 nM | – | 1 to 10 µM | –
2 | Cc1cc(Nc2cc(N3CCN(C)CC3)nc(-c3ccc(C(F)(F)F)cc3)n2)n[nH]1 [Compound 100] | – | – | 1 to 10 µM | –
3 | COCCN(C)c1cc(Nc2cc(C)[nH]n2)nc(-c2ccccc2Cl)n1 [Compound 63] | ≤ 1000 nM | – | 1 to 10 µM | –
4 | Cc1cc(Nc2cc(NC3CCOCC3)nc(-c3ccc(C(F)(F)F)cc3)n2)n[nH]1 [Compound 79, N^4-(5-methyl-1H-pyrazol-3-yl)-N^6-(tetrahydro-2H-pyran-4-yl)-2-(4-(trifluoromethyl)phenyl)pyrimidine-4,6-diamine] | – | – | 1 to 10 µM | –
5 | COCCN(C)c1cc(Nc2cc(C)[nH]n2)nc(-c2cccc(OC)c2)n1 [Compound 68, N^4-(2-methoxyethyl)-2-(3-methoxyphenyl)-N^4-methyl-N^6-(5-methyl-1H-pyrazol-3-yl)pyrimidine-4,6-diamine] | ≤ 1000 nM | – | – | ≤ 1000 nM
6 | COCCN(C)c1cc(Nc2cc(C)[nH]n2)nc(-c2cccc(C(F)(F)F)c2)n1 [Compound 125, N^4-(2-methoxyethyl)-N^4-methyl-N^6-(5-methyl-1H-pyrazol-3-yl)-2-(3-(trifluoromethyl)phenyl)pyrimidine-4,6-diamine] | ≤ 1000 nM | – | 1 to 10 µM | –
7 | Cc1cc(Nc2cc(N3CCN(C)CC3)nc(-c3ccc(-c4ccccc4)cc3)n2)n[nH]1 [Example 157, 2-(biphenyl-4-yl)-N-(5-methyl-1H-pyrazol-3-yl)-6-(4-methylpiperazin-1-yl)pyrimidin-4-amine] | ≤ 1000 nM | – | – | ≤ 1000 nM
8 | Cc1cc(Nc2cc(N(C)CCN(C)C)nc(-c3ccc4ccccc4c3)n2)n[nH]1 [Example 142, N^4-(2-(dimethylamino)ethyl)-N^4-methyl-N^6-(5-methyl-1H-pyrazol-3-yl)-2-(naphthalen-2-yl)pyrimidine-4,6-diamine] | ≤ 1000 nM | – | – | ≤ 1000 nM
9 | Cc1cc(Nc2cc(N(C)CCN(C)C)nc(-c3cccc(N(C)C)c3)n2)n[nH]1 [Compound 107] | – | ≤ 100 nM | 1 to 10 µM | –
10 | Cc1cc(Nc2cc(N(C)CCN(C)C)nc(-c3cccc(C(F)(F)F)c3)n2)n[nH]1 [Compound 113, N^4-(2-(dimethylamino)ethyl)-N^4-methyl-N^6-(5-methyl-1H-pyrazol-3-yl)-2-(3-(trifluoromethyl)phenyl)pyrimidine-4,6-diamine] | ≤ 1000 nM | – | – | ≤ 1000 nM
11 | COCCN(C)c1cc(Nc2cc(C)[nH]n2)nc(-c2ccccc2C(F)(F)F)n1 [Example 126, N^4-(2-methoxyethyl)-N^4-methyl-N^6-(5-methyl-1H-pyrazol-3-yl)-2-(2-(trifluoromethyl)phenyl)pyrimidine-4,6-diamine] | ≤ 1000 nM | – | 1 to 10 µM | –
12 | COCCN(C)c1cc(Nc2cc(C)[nH]n2)nc(-c2ccc(N(C)C)cc2)n1 [Compound 118, 2-(4-(dimethylamino)phenyl)-N^4-(2-methoxyethyl)-N^4-methyl-N^6-(5-methyl-1H-pyrazol-3-yl)pyrimidine-4,6-diamine] | ≤ 1000 nM | – | 1 to 10 µM | –

Now from value to compound, other results behind:

Row | IC50 [1, 2] | IC50 ([1]; 40 minutes at room temperature) | Compound | IC50 (HCT116 cells) | GI50 (HCT116 cells)
13 | ≤ 1000 nM | – | Cc1cc(Nc2cc(NC3CCOCC3)nc(-c3ccc(C(C)(C)C)cc3)n2)n[nH]1 [Compound 70, 2-(4-tert-butylphenyl)-N^4-(5-methyl-1H-pyrazol-3-yl)-N^6-(tetrahydro-2H-pyran-4-yl)pyrimidine-4,6-diamine] | 1 to 10 µM | –
14 | ≤ 1000 nM | – | Cc1cc(Nc2cc(N3CCN(C)CC3)nc(-c3cc(F)cc(Cl)c3)n2)n[nH]1 [Compound 97] | – | ≤ 1000 nM
15 | – | ≤ 100 nM | Cc1cc(Nc2cc(N3CCN(C)CC3)nc(-c3ccccc3C(F)(F)F)n2)n[nH]1 [Compound 102, N-(5-methyl-1H-pyrazol-3-yl)-6-(4-methylpiperazin-1-yl)-2-(2-(trifluoromethyl)phenyl)pyrimidin-4-amine] | 1 to 10 µM | –
16 | ≤ 1000 nM | – | COCCN(C)c1cc(Nc2cc(C)[nH]n2)nc(-c2cccc(C)c2)n1 [Compound 65, N^4-(2-methoxyethyl)-N^4-methyl-N^6-(5-methyl-1H-pyrazol-3-yl)-2-m-tolylpyrimidine-4,6-diamine] | 1 to 10 µM | –
17 | ≤ 1000 nM | – | COCCN(C)c1cc(Nc2cc(C)[nH]n2)nc(-c2ccc3ccccc3c2)n1 [Example 149, N^4-(2-methoxyethyl)-N^4-methyl-N^6-(5-methyl-1H-pyrazol-3-yl)-2-(naphthalen-2-yl)pyrimidine-4,6-diamine] | 1 to 10 µM | –
18 | ≤ 1000 nM | – | COCCN(C)c1cc(Nc2cc(C)[nH]n2)nc(-c2ccc(OC)cc2)n1 [Compound 67, N^4-(2-methoxyethyl)-2-(4-methoxyphenyl)-N^4-methyl-N^6-(5-methyl-1H-pyrazol-3-yl)pyrimidine-4,6-diamine] | 1 to 10 µM | –
19 | ≤ 1000 nM | – | Cc1cc(Nc2cc(NC3CCOCC3)nc(-c3cccc(C(F)(F)F)c3)n2)n[nH]1 [Compound 80, N^4-(5-methyl-1H-pyrazol-3-yl)-N^6-(tetrahydro-2H-pyran-4-yl)-2-(3-(trifluoromethyl)phenyl)pyrimidine-4,6-diamine] | 1 to 10 µM | –
20 | ≤ 1000 nM | – | Cc1cc(Nc2cc(NC3CCOCC3)nc(-c3ccccc3C(F)(F)F)n2)n[nH]1 [Compound 81, N^4-(5-methyl-1H-pyrazol-3-yl)-N^6-(tetrahydro-2H-pyran-4-yl)-2-(2-(trifluoromethyl)phenyl)pyrimidine-4,6-diamine] | 1 to 10 µM | –
21 | ≤ 1000 nM | – | Cc1cc(Nc2cc(N(C)CCN(C)C)nc(-c3ccc4c(c3)OCO4)n2)n[nH]1 [Example 146, 2-(benzo[d][1,3]dioxol-5-yl)-N^4-(2-(dimethylamino)ethyl)-N^4-methyl-N^6-(5-methyl-1H-pyrazol-3-yl)pyrimidine-4,6-diamine] | – | ≤ 1000 nM
22 | ≤ 1000 nM | – | Cc1cc(Nc2cc(NC3CCOCC3)nc(-c3cccc4ccccc34)n2)n[nH]1 [Example 127, N^4-(5-methyl-1H-pyrazol-3-yl)-2-(naphthalen-1-yl)-N^6-(tetrahydro-2H-pyran-4-yl)pyrimidine-4,6-diamine] | 1 to 10 µM | –
23 | ≤ 1000 nM | – | COCCN(C)c1cc(Nc2cc(C)[nH]n2)nc(-c2cccc3c2OCCO3)n1 [Example 150, 2-(2,3-dihydrobenzo[b][1,4]dioxin-5-yl)-N^4-(2-methoxyethyl)-N^4-methyl-N^6-(5-methyl-1H-pyrazol-3-yl)pyrimidine-4,6-diamine] | 1 to 10 µM | –
24 | ≤ 1000 nM | – | Cc1cc(Nc2cc(N3CCN(C)CC3)nc(-c3cccc4c3OCCO4)n2)n[nH]1 [Example 136, 2-(2,3-dihydrobenzo[b][1,4]dioxin-5-yl)-N-(5-methyl-1H-pyrazol-3-yl)-6-(4-methylpiperazin-1-yl)pyrimidin-4-amine] | 1 to 10 µM | –
25 | ≤ 1000 nM | – | Cc1cc(Nc2cc(N(C)CCN(C)C)nc(-c3ccc(C(C)(C)C)cc3)n2)n[nH]1 [Compound 103, 2-(4-tert-butylphenyl)-N^4-(2-(dimethylamino)ethyl)-N^4-methyl-N^6-(5-methyl-1H-pyrazol-3-yl)pyrimidine-4,6-diamine] | – | ≤ 1000 nM
